Drawing on the Kinase Knowledgebase extract (Sharma et al. 2016), this text covers IC50 for 75 compounds.

The target of one test is PIK3CD (Human) (UniProt O00329). As to the kind of experiment: Enzyme Assay.
The next test deals with PIK3CA (human) (UniProt P42336). As to the kind of experiment: Enzyme Assay.
PIK3CA (human), sequence (P42336 whole entry, looked up): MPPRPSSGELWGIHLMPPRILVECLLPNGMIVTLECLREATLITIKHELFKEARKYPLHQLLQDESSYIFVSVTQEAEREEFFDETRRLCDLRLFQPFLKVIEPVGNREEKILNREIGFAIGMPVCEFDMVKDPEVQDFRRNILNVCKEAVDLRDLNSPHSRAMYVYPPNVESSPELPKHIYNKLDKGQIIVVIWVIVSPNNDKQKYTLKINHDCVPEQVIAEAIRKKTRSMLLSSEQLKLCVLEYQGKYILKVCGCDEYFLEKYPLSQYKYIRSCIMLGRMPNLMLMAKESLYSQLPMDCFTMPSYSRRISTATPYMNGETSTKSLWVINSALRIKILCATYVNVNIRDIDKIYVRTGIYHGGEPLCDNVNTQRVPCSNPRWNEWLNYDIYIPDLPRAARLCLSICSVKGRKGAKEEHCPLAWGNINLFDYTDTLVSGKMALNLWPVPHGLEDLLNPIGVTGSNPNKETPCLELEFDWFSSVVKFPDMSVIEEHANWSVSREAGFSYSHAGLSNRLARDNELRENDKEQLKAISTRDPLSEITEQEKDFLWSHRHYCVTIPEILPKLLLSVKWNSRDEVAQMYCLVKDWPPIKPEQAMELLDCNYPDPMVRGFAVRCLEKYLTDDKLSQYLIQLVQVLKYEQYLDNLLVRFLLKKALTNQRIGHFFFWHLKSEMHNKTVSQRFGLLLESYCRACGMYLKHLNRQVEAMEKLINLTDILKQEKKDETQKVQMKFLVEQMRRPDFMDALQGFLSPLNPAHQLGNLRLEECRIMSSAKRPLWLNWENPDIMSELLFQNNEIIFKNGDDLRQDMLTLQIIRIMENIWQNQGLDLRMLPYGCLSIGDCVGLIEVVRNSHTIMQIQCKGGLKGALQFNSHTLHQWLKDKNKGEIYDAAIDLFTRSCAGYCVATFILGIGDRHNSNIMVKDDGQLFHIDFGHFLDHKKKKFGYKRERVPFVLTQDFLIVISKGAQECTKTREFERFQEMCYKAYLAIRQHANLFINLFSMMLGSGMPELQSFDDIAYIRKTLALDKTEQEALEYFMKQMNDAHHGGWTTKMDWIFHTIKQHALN

PIK3CD (Human), sequence (O00329 whole entry, looked up): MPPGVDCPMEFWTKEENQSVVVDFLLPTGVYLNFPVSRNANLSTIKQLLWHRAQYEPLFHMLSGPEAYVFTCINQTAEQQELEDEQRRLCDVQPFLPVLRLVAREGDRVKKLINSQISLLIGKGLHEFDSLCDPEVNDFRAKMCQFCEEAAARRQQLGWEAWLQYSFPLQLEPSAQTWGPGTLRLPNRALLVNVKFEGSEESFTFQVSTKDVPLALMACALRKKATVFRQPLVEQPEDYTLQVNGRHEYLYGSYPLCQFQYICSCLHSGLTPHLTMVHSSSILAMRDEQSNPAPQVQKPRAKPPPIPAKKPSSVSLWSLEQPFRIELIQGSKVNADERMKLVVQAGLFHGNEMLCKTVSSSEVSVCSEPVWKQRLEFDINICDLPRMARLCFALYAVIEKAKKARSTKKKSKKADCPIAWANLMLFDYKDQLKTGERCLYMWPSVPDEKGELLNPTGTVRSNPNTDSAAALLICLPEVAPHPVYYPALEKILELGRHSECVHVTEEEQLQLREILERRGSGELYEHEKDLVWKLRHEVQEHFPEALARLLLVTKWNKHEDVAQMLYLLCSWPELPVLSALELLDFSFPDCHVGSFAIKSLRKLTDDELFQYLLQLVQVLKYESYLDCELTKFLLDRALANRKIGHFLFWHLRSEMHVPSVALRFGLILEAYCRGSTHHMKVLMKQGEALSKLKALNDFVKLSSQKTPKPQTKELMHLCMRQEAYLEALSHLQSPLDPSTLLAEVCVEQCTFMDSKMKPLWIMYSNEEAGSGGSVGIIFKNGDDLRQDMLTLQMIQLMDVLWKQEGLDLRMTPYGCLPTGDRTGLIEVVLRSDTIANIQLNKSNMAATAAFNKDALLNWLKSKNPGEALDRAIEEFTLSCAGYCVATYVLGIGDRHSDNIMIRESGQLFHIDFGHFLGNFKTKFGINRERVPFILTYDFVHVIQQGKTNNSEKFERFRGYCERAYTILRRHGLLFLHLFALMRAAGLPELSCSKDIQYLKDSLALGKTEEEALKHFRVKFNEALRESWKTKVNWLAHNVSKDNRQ

As to `Cc1ccccc1-n1c(Cn2nc(C(=O)O)c3c(N)ncnc32)cc2cccc(C)c2c1=O`, the IC50 – broadly, the concentration needed to halve the response being measured – on PIK3CD (Human) fell in the range of 100 to 1000 nM.
`Cc1ccccc1-n1c(Cn2nc(-c3ccc4oc(N)nc4c3)c3c(N)ncnc32)cc2cccc(C)c2c1=O`: the values for the IC50 against PIK3CA (human) and on PIK3CD (Human) were 100 to 1000 nM and less than 100 nM, respectively.
Take `Cc1ccccc1-n1c(Cn2nc(I)c3c(N)ncnc32)cc2cccc(C)c2c1=O`: the IC50 at PIK3CA (human) is greater than 10000 nM.
On PIK3CA (human), `Cc1cccc2cc(Cn3nc(C#C[C@@H](C)O)c4c(N)ncnc43)n(C3CCCC3)c(=O)c12` registered an IC50 greater than 10000 nM.
Regarding `COc1ccc(-c2nn(Cc3cc4cccc(C)c4c(=O)n3-c3ccccc3C)c3ncnc(N)c23)cc1`, the IC50 was greater than 10000 nM against PIK3CA (human) and 100 to 1000 nM on PIK3CD (Human).
For `Cc1cccc2cc(Cn3nc(-c4cc(O)cc(F)c4)c4c(N)ncnc43)n(C3CCCCC3)c(=O)c12`, the IC50 against PIK3CA (human) was greater than 10000 nM.
The compound `Cc1ccccc1-n1c(Cn2nc(Br)c3c(N)ncnc32)cc2cccc(C)c2c1=O` registered an IC50 on PIK3CA (human) greater than 10000 nM.
As to `Cc1cccc2cc(C(C)Nc3ncnc4[nH]cnc34)n(CCN3CCOCC3)c(=O)c12` (stereo not drawn), on PIK3CD (Human), the IC50 is less than 100 nM.
In the case of `CC(=O)Nc1nc2ccc(-c3nn(Cc4cc5cccc(C)c5c(=O)n4-c4ccccc4)c4ncnc(N)c34)cc2s1`, the IC50 against PIK3CA (human) was 100 to 1000 nM.
Compound `Cc1cccc2cc(Cn3nc(-c4cc(O)cc(F)c4)c4c(N)ncnc43)n(C3CC3)c(=O)c12` showed an IC50 on PIK3CA (human) of 100 to 1000 nM.
`CC(Nc1ncnc2[nH]cnc12)c1cc2ccccc2c(=O)n1C1CCN(C)CC1` (stereo not drawn) gave an IC50 on PIK3CD (Human) of 100 to 1000 nM.
On PIK3CA (human), `Cc1ccccc1-n1c(Cn2nc(-c3ccc(O)c(Cl)c3)c3c(N)ncnc32)cc2cccc(C)c2c1=O` had an IC50 greater than 10000 nM.
Regarding `Cc1cccnc1-n1c(Cn2nc(Cl)c3c(N)ncnc32)cc2cccc(C)c2c1=O`, the concentration for half-maximal inhibition (IC50) against PIK3CA (human) is greater than 10000 nM; on PIK3CD (Human), 100 to 1000 nM.
On PIK3CA (human), `Cc1nc2c(N[C@@H](C)c3cc4cccc(C)c4c(=O)n3-c3ccccc3)ncnc2[nH]1` showed an IC50 greater than 10000 nM.
Same read-out and setting: the value for `Cc1cccc2cc(Cn3nc(-c4cccc(O)c4)c4c(N)ncnc43)n(-c3ccccc3O)c(=O)c12` was greater than 10000 nM.
The compound `Nc1ncnc2c1c(-c1cccc(O)c1)nn2Cc1cc2cccc(F)c2c(=O)n1-c1ccccc1F` returned an IC50 against PIK3CD (Human) of 100 to 1000 nM.
Turning to `CC(=O)Nc1nc2cc(-c3nn(Cc4cc5cccc(C)c5c(=O)n4-c4ccccc4C)c4ncnc(N)c34)ccc2s1`, the IC50 at PIK3CA (human) was greater than 10000 nM; at PIK3CD (Human), 100 to 1000 nM.
For `Cc1cccnc1-n1c(Cn2nc(-c3ccc4oc(N)nc4c3)c3c(N)ncnc32)cc2cccc(C)c2c1=O`, on PIK3CD (Human), the IC50 was less than 100 nM.
The compound `Cc1cccc2cc(C(C)Nc3ncnc4[nH]cnc34)n(-c3ccccc3)c(=O)c12` (stereo not drawn) returned an IC50 against PIK3CD (Human) of less than 100 nM.
`Cc1cccc2cc(Cn3nc(C(N)=O)c4c(N)ncnc43)n(-c3ccccc3)c(=O)c12` returned an IC50 against PIK3CD (Human) of 100 to 1000 nM.
For the compound `Cc1cccc2cc(Cn3nc(C#C[C@@H](C)O)c4c(N)ncnc43)n(-c3ccccc3C(C)C)c(=O)c12`, at PIK3CA (human), the IC50 was greater than 10000 nM.
On to `Cc1cccc2cc(Cn3nc(-c4ccc5nc(N)[nH]c5c4)c4c(N)ncnc43)n(-c3ccccc3)c(=O)c12`, for which the IC50 on PIK3CD (Human) is less than 100 nM.
As for `Cc1cccc2cc(C(C)Nc3ncnc4[nH]cnc34)n(-c3ccccc3F)c(=O)c12` (stereo not drawn), the IC50 at PIK3CA (human) is greater than 10000 nM.
The compound `Cc1cccc2cc([C@H](C)Nc3ncnc4[nH]cnc34)n(C(C)C)c(=O)c12` displayed an IC50 on PIK3CD (Human) of less than 100 nM.
On PIK3CA (human), `COc1ccccc1-n1c(Cn2nc(-c3cccc(O)c3)c3c(N)ncnc32)cc2cccc(C)c2c1=O` gave a concentration for half-maximal inhibition (IC50) greater than 10000 nM.
Still for that read-out and setting: the same measure for `Cc1ccccc1-n1c(Cn2nc(-c3cn[nH]c3)c3c(N)ncnc32)cc2cccc(C)c2c1=O`: greater than 10000 nM.
Take `Cc1cccc2cc(Cn3nc(-c4ccc(F)c(O)c4)c4c(N)ncnc43)n(C(C)C)c(=O)c12`: the IC50 against PIK3CA (human) is greater than 10000 nM.
Take `Cc1cccnc1-n1c(Cn2nc(Br)c3c(N)ncnc32)cc2cccc(C)c2c1=O`: the IC50 was greater than 10000 nM against PIK3CA (human) and 100 to 1000 nM at PIK3CD (Human).
As to `Cc1ccccc1-n1c(Cn2nc(-c3cccc(O)c3)c3c(N)ncnc32)cc2cccc(C)c2c1=O`, the IC50 against PIK3CA (human) was greater than 10000 nM.
Compound `Cc1ccccc1-n1c(Cn2nc(-c3ccc4cc[nH]c4c3)c3c(N)ncnc32)cc2cccc(C)c2c1=O` returned an IC50 on PIK3CA (human) greater than 10000 nM.
As to `CCC(Nc1ncnc2[nH]cnc12)c1cc2cccc(C)c2c(=O)n1C1CCN(C)CC1` (stereo not drawn), the IC50 was greater than 10000 nM on PIK3CA (human) and 100 to 1000 nM against PIK3CD (Human).
Compound `Cc1ccccc1-n1c(C(C)Nc2ncnc3[nH]cnc23)cc2cccc(C)c2c1=O` (stereo not drawn) returned an IC50 against PIK3CA (human) greater than 10000 nM.
Still for that read-out and setting: the same measure for `Cc1cccc2cc(Cn3nc(-c4cccc(O)c4)c4c(N)ncnc43)n(C3CCC3)c(=O)c12`: greater than 10000 nM.
Regarding `CCC(Nc1ncnc2[nH]cnc12)c1cc2cccc(C)c2c(=O)n1C(C)C` (stereo not drawn), the IC50 is greater than 10000 nM against PIK3CA (human) and less than 100 nM at PIK3CD (Human).
For `Cc1ccccc1-n1c(Cn2nc(I)c3c(N)ncnc32)cc2ccccc2c1=O` the same measures were greater than 10000 nM and 100 to 1000 nM.
`Cc1cccc2cc(C(C)Nc3ncnc4[nH]cnc34)n(CCN3CCCC3)c(=O)c12` (stereo not drawn) came in with an IC50 on PIK3CD (Human) of less than 100 nM.
The same measure, in the same setting: the same measure for `Cc1cccc2cc(C(C)Nc3ncnc4[nH]cnc34)n(C3CCCC3)c(=O)c12` (stereo not drawn): less than 100 nM.
Still for that read-out and setting: the value for `Cc1ccccc1-n1c(Cn2nc(-c3nn[nH]n3)c3c(N)ncnc32)cc2cccc(C)c2c1=O` was less than 100 nM.
With `Cc1cccc2cc([C@H](C)NC(=O)c3cnn4ccccc34)n(-c3ccccc3)c(=O)c12`, the IC50 at PIK3CA (human) and against PIK3CD (Human) was greater than 10000 nM in each case.
As for `CC(=O)c1nn(Cc2cc3cccc(C)c3c(=O)n2-c2ccccc2)c2ncnc(N)c12`, the IC50 at PIK3CA (human) was greater than 10000 nM; against PIK3CD (Human), 100 to 1000 nM.
For `Cc1cccc2cc(Cn3nc(-c4ccc5nc(N)cn5c4)c4c(N)ncnc43)n(-c3ccccc3)c(=O)c12` the same measures were greater than 10000 nM and 100 to 1000 nM.
Regarding `Cc1ccccc1-n1c(Cn2nc(-c3ccc4nc(N)sc4c3)c3c(N)ncnc32)cc2cccc(C)c2c1=O`, the IC50 against PIK3CA (human) lay in the range of 100 to 1000 nM.
In the case of `COCc1nn(Cc2cc3cccc(C)c3c(=O)n2-c2ccccc2C)c2ncnc(N)c12`, the IC50 against PIK3CA (human) and against PIK3CD (Human) was greater than 10000 nM in each case.
`Cc1cccc2cc(Cn3nc(C#C[C@@H](C)O)c4c(N)ncnc43)n(C(C)C)c(=O)c12` came in with an IC50 at PIK3CA (human) greater than 10000 nM.
On to `Cc1cccc2cc(C(C)Nc3ncnc4[nH]cnc34)n(C3CCC3)c(=O)c12` (stereo not drawn), for which the IC50 against PIK3CA (human) is greater than 10000 nM; on PIK3CD (Human) it was less than 100 nM.
Turning to `Cc1ccccc1-n1c(Cn2nc(-c3cc(O)cc(F)c3)c3c(N)ncnc32)cc2ccccc2c1=O`, the IC50 against PIK3CA (human) was greater than 10000 nM.
As to `CCC(Nc1ncnc2[nH]cnc12)c1cc2cccc(C)c2c(=O)n1-c1ccc(F)cc1` (stereo not drawn), the IC50 on PIK3CD (Human) is less than 100 nM.
Same read-out and setting: the value for `Cc1cccc2cc([C@@H](C)Nc3ncnc4[nH]cnc34)n(C3CC3)c(=O)c12` was greater than 10000 nM; that for `Cc1cccc2cc([C@H](C)Nc3nc(F)nc4[nH]cnc34)n(-c3ccccc3)c(=O)c12` was less than 100 nM; that for `Cc1cccc2cc([C@H](C)Nc3nc(Cl)nc4[nH]cnc34)n(-c3ccccc3)c(=O)c12` was less than 100 nM.
At PIK3CA (human), `Cc1cccc2cc(Cn3nc(-c4cccc(O)c4)c4c(N)ncnc43)n(C3CCCCC3)c(=O)c12` registered an IC50 greater than 10000 nM.
Turning to `Cc1cccnc1-n1c(Cn2nc(-c3cccc(O)c3)c3c(N)ncnc32)cc2ccccc2c1=O`, the IC50 at PIK3CD (Human) was in the range of 100 to 1000 nM.
On the same count and under the same terms, the same measure for `Cc1cccc2cc([C@H](C)Nc3ncnc4[nH]cnc34)n(-c3ccccc3)c(=O)c12`: less than 100 nM.
On to `Cc1cccc2cc([C@H](C)Nc3nc(N)ncc3F)n(C3CC3)c(=O)c12`, for which the IC50 on PIK3CA (human) is greater than 10000 nM.
Same read-out and setting: the same measure for `Cc1cccnc1-n1c(Cn2nc(-c3ccc(Cl)c(O)c3)c3c(N)ncnc32)cc2cccc(C)c2c1=O`: greater than 10000 nM.
Compound `Cc1ccccc1-n1c(Cn2nc(-c3ccc4nc(N)oc4c3)c3c(N)ncnc32)cc2cccc(C)c2c1=O` returned an IC50 against PIK3CD (Human) of less than 100 nM.
As to `Cc1cccc2cc(Cn3nc(C#CC4CC4)c4c(N)ncnc43)n(-c3ccccc3F)c(=O)c12`, on PIK3CD (Human), the IC50 was 100 to 1000 nM.
In the case of `Cc1ccccc1-n1c(Cn2nc(-c3cnc4[nH]ccc4c3)c3c(N)ncnc32)cc2cccc(C)c2c1=O`, the IC50 against PIK3CA (human) was greater than 10000 nM.
Same read-out and setting: the value for `Cc1cccc2cc(Cn3nc(-c4cccc(O)c4)c4c(N)ncnc43)n(-c3ccccc3Cl)c(=O)c12` was greater than 10000 nM.
As for `Cc1ccccc1-n1c(Cn2nc(C(F)F)c3c(N)ncnc32)cc2cccc(C)c2c1=O`, the IC50 against PIK3CD (Human) is less than 100 nM.
`Cc1ccccc1-n1c(Cn2nc(-c3ccc(O)c(F)c3)c3c(N)ncnc32)cc2cccc(C)c2c1=O`: the IC50 against PIK3CA (human) is greater than 10000 nM.
The same measure, in the same setting: the same measure for `Cc1cccc2cc(Cn3nc(-c4cc(O)cc(F)c4)c4c(N)ncnc43)n(-c3ccccc3)c(=O)c12`: 100 to 1000 nM; for `Cc1cccc2cc([C@H](C)Nc3c(C#N)cnc4ccccc34)n(-c3ccccc3)c(=O)c12`: greater than 10000 nM; for `Cc1cccnc1-n1c(Cn2nc(-c3cc(O)cc(F)c3)c3c(N)ncnc32)cc2cccc(C)c2c1=O`: greater than 10000 nM.
Still for that read-out and setting: the value for `Cc1ccccc1-n1c(Cn2nc(C=CC(N)=O)c3c(N)ncnc32)cc2cccc(C)c2c1=O` was greater than 10000 nM.
At PIK3CD (Human), `CC(=O)Nc1nc2ccc(-c3nn(Cc4cc5cccc(C)c5c(=O)n4-c4ccccc4C)c4ncnc(N)c34)cc2[nH]1` showed an IC50 of less than 100 nM.
As to `Cc1cccc2cc(Cn3nc(I)c4c(N)ncnc43)n(C3CCCC3)c(=O)c12`, the IC50 against PIK3CD (Human) was 100 to 1000 nM.
As to `Cc1ccccc1-n1c(Cn2nc(-c3ccc4nc(N)[nH]c4c3)c3c(N)ncnc32)cc2cccc(C)c2c1=O`, the IC50 on PIK3CD (Human) is less than 100 nM.
As for `Cc1ccccc1-n1c(Cn2nc(-c3ccc(Cl)c(O)c3)c3c(N)ncnc32)cc2cccc(C)c2c1=O`, the IC50 at PIK3CA (human) is greater than 10000 nM.
Still for that read-out and setting: the value for `Cc1ccccc1-n1c(Cn2nc(-c3ccc(F)c(O)c3)c3c(N)ncnc32)cc2cccc(C)c2c1=O` was greater than 10000 nM; that for `Cc1ccccc1-n1c(Cn2nc(-c3ccc4nc(N)ccc4c3)c3c(N)ncnc32)cc2cccc(C)c2c1=O` was 100 to 1000 nM.
The compound `Cc1cccc2cc([C@H](C)Nc3ncnc4[nH]cnc34)n(C3CCC3)c(=O)c12` showed an IC50 on PIK3CD (Human) of less than 100 nM.
The same measure, in the same setting: the same measure for `CCc1nn(Cc2cc3cccc(C)c3c(=O)n2-c2ccccc2)c2ncnc(N)c12`: less than 100 nM.
As for `Cc1cccc2cc(Cn3nc(-c4ccc5oc(N)nc5c4)c4c(N)ncnc43)n(-c3ccccc3)c(=O)c12`, the IC50 on PIK3CD (Human) is less than 100 nM.
Still for that read-out and setting: the same measure for `Cc1cccc2cc(Cn3nc(-c4cn[nH]c4)c4c(N)ncnc43)n(C3CCN(C)CC3)c(=O)c12`: 100 to 1000 nM.
